Assay results reported in ChEMBL document CHEMBL3885881, “DrugMatrix”.

Species on record: Rattus norvegicus
Experiment: DrugMatrix - Regimen: Daily Repeat
Format: toxicity, organism-based, Sprague-Dawley
Set-up: regimen Daily Repeat, gender Male, age 6-8 weeks
Conditions: in vivo, po, route oral GAVAGE, vehicle .5 % CMC; for ABSOLUTE BASOPHIL / ABSOLUTE EOSINOPHIL / ABSOLUTE LYMPHOCYTE / ABSOLUTE MONOCYTE / ABSOLUTE SEGMENTED NEUTROPHIL / BASOPHIL / EOSINOPHIL / ERYTHROCYTE COUNT / HEMATOCRIT / HEMOGLOBIN / LEUKOCYTE COUNT / LYMPHOCYTE / MEAN CORPUSCULAR HEMOGLOBIN / MEAN CORPUSCULAR HEMOGLOBIN CONCENTRATION / MEAN CORPUSCULAR VOLUME / MONOCYTE / NEUTROPHIL / NUCLEATED RED BLOOD CELLS / PLATELET COUNT: tissue Blood; for ALANINE AMINOTRANSFERASE / ALBUMIN / ALKALINE PHOSPHATASE / ASPARTATE AMINOTRANSFERASE / BLOOD UREA NITROGEN / CARBON DIOXIDE / CHLORIDE / CHOLESTEROL / CREATINE PHOSPHOKINASE / CREATININE / GLUCOSE / LACTATE DEHYDROGENASE / LIPASE / PHOSPHORUS / POTASSIUM / SODIUM / TOTAL BILIRUBIN / TOTAL PROTEIN / URIC ACID: tissue Plasma
[1] = 0 mg/kg, 72 h, dose level Control, time 3 day
[2] = 0 mg/kg, 120 h, dose level Control, time 5 day
[3] = 580 mg/kg, 72 h, dose level High, time 3 day

CN1C(=O)COc2c(C(=O)NC3CN4CCC3CC4)cc(Cl)cc21 (centres undefined) [AZASETRON]
ABSOLUTE BASOPHIL [1]: 0 CELLS/uL
ABSOLUTE EOSINOPHIL [1]: 47.67 CELLS/uL
ABSOLUTE LYMPHOCYTE [1]: 15937.67 CELLS/uL
ABSOLUTE MONOCYTE [1]: 138.33 CELLS/uL
ABSOLUTE SEGMENTED NEUTROPHIL [1]: 1443 CELLS/uL
BASOPHIL [1]: 0%
EOSINOPHIL [1]: 0.33%
ERYTHROCYTE COUNT [1]: 5.45 x10E6/uL
HEMATOCRIT [1]: 34.43%
HEMOGLOBIN [1]: 13.38 G/DL
LEUKOCYTE COUNT [1]: 17.57 x10E3/uL
LYMPHOCYTE [1]: 90.33%
MEAN CORPUSCULAR HEMOGLOBIN [1]: 24.6 pg
MEAN CORPUSCULAR HEMOGLOBIN CONCENTRATION [1]: 38.88 G/DL
MEAN CORPUSCULAR VOLUME [1]: 63.27 fL
MONOCYTE [1]: 0.83%
NEUTROPHIL [1]: 8.5%
NUCLEATED RED BLOOD CELLS [1]: 0 /100WBC
PLATELET COUNT [1]: 1298 x10E3/uL
ALANINE AMINOTRANSFERASE [1]: 47.67 u/L
ALBUMIN [1]: 4.18 G/DL
ALKALINE PHOSPHATASE [1]: 398.5 u/L
ASPARTATE AMINOTRANSFERASE [1]: 93.17 u/L
BLOOD UREA NITROGEN [1]: 16 mg/dL
CARBON DIOXIDE [1]: 29.17 mmol/L
CHLORIDE [1]: 98.17 MEQ/L
CHOLESTEROL [1]: 68.83 mg/dL
CREATINE PHOSPHOKINASE [1]: 467.33 u/L
CREATININE [1]: 0.14 mg/dL
GLUCOSE [1]: 151.67 mg/dL
LACTATE DEHYDROGENASE [1]: 597.5 u/L
LIPASE [1]: 9.33 u/L
PHOSPHORUS [1]: 11.97 mg/dL
POTASSIUM [1]: 6.43 MEQ/L
SODIUM [1]: 140.68 MEQ/L
TOTAL BILIRUBIN [1]: 0.18 mg/dL
TOTAL PROTEIN [1]: 5.82 G/DL
URIC ACID [1]: 1.48 mg/dL
ABSOLUTE BASOPHIL [2]: 0 CELLS/uL
ABSOLUTE EOSINOPHIL [2]: 31 CELLS/uL
ABSOLUTE LYMPHOCYTE [2]: 14327.83 CELLS/uL
ABSOLUTE MONOCYTE [2]: 102.83 CELLS/uL
ABSOLUTE SEGMENTED NEUTROPHIL [2]: 1321.67 CELLS/uL
BASOPHIL [2]: 0%
EOSINOPHIL [2]: 0.17%
ERYTHROCYTE COUNT [2]: 5.79 x10E6/uL
HEMATOCRIT [2]: 36.1%
HEMOGLOBIN [2]: 14.15 G/DL
LEUKOCYTE COUNT [2]: 15.78 x10E3/uL
LYMPHOCYTE [2]: 90.5%
MEAN CORPUSCULAR HEMOGLOBIN [2]: 24.48 pg
MEAN CORPUSCULAR HEMOGLOBIN CONCENTRATION [2]: 39.22 G/DL
MEAN CORPUSCULAR VOLUME [2]: 62.4 fL
MONOCYTE [2]: 0.67%
NEUTROPHIL [2]: 8.67%
NUCLEATED RED BLOOD CELLS [2]: 0.17 /100WBC
PLATELET COUNT [2]: 1211.67 x10E3/uL
ALANINE AMINOTRANSFERASE [2]: 49 u/L
ALBUMIN [2]: 4.27 G/DL
ALKALINE PHOSPHATASE [2]: 356.67 u/L
ASPARTATE AMINOTRANSFERASE [2]: 90.17 u/L
BLOOD UREA NITROGEN [2]: 20.5 mg/dL
CARBON DIOXIDE [2]: 29.17 mmol/L
CHLORIDE [2]: 98 MEQ/L
CHOLESTEROL [2]: 69.83 mg/dL
CREATINE PHOSPHOKINASE [2]: 312 u/L
CREATININE [2]: 0.21 mg/dL
GLUCOSE [2]: 149.83 mg/dL
LACTATE DEHYDROGENASE [2]: 322 u/L
LIPASE [2]: 10 u/L
PHOSPHORUS [2]: 12 mg/dL
POTASSIUM [2]: 6.75 MEQ/L
SODIUM [2]: 142.8 MEQ/L
TOTAL BILIRUBIN [2]: 0.17 mg/dL
TOTAL PROTEIN [2]: 6.1 G/DL
URIC ACID [2]: 1.68 mg/dL
ABSOLUTE BASOPHIL [3]: 0 CELLS/uL
ABSOLUTE EOSINOPHIL [3]: 0 CELLS/uL
ABSOLUTE LYMPHOCYTE [3]: 13751.33 CELLS/uL
ABSOLUTE MONOCYTE [3]: 160.33 CELLS/uL
ABSOLUTE SEGMENTED NEUTROPHIL [3]: 1088.33 CELLS/uL
BASOPHIL [3]: 0%
EOSINOPHIL [3]: 0%
ERYTHROCYTE COUNT [3]: 6.01 x10E6/uL
HEMATOCRIT [3]: 37.33%
HEMOGLOBIN [3]: 14.57 G/DL
LEUKOCYTE COUNT [3]: 15 x10E3/uL
LYMPHOCYTE [3]: 91.67%
MEAN CORPUSCULAR HEMOGLOBIN [3]: 24.27 pg
MEAN CORPUSCULAR HEMOGLOBIN CONCENTRATION [3]: 39.03 G/DL
MEAN CORPUSCULAR VOLUME [3]: 62.13 fL
MONOCYTE [3]: 1%
NEUTROPHIL [3]: 7.33%
NUCLEATED RED BLOOD CELLS [3]: 0 /100WBC
PLATELET COUNT [3]: 1244 x10E3/uL
ALANINE AMINOTRANSFERASE [3]: 64.33 u/L
ALBUMIN [3]: 4.27 G/DL
ALKALINE PHOSPHATASE [3]: 372.33 u/L
ASPARTATE AMINOTRANSFERASE [3]: 96.67 u/L
BLOOD UREA NITROGEN [3]: 17.33 mg/dL
CARBON DIOXIDE [3]: 26.67 mmol/L
CHLORIDE [3]: 99.33 MEQ/L
CHOLESTEROL [3]: 72.67 mg/dL
CREATINE PHOSPHOKINASE [3]: 527.67 u/L
CREATININE [3]: 0.25 mg/dL
GLUCOSE [3]: 150 mg/dL
LACTATE DEHYDROGENASE [3]: 877 u/L
LIPASE [3]: 9.67 u/L
PHOSPHORUS [3]: 11.3 mg/dL
POTASSIUM [3]: 6.57 MEQ/L
SODIUM [3]: 141.63 MEQ/L
TOTAL BILIRUBIN [3]: 0.23 mg/dL
TOTAL PROTEIN [3]: 6 G/DL
URIC ACID [3]: 1.73 mg/dL
